Tests used:
[1] = bacteroides fragilis, 12 h, 2 µM
Description: The drug is tested on Bacteroides fragilis strain: 3397 (T10) for biotransformation. The drug concentrations were measured before and after a 12-h incubation by liquid-chromatography-coupled mass spectrometry (LC–MS)

[2] = The drug is tested on Anaerotruncus colihominis strain: DSM17241 for biotransformation. The drug concentrations were measured before and after a 12-h incubation by liquid-chromatography-coupled mass spectrometry (LC–MS); details: 2 µM
Esterase = target: T1, Esterase (Phocaeicola dorei, UniProt B6W2J6); test: (§1) The drug is tested on Bacteroides dorei strain: DSM17855 for biotransformation. The drug concentrations were measured before and after a 12-h incubation by liquid-chromatography-coupled mass spectrometry (LC–MS); format: ADME; set-up: dose 2 uM; details: 2 µM
T1 sequence (B6W2J6 whole entry): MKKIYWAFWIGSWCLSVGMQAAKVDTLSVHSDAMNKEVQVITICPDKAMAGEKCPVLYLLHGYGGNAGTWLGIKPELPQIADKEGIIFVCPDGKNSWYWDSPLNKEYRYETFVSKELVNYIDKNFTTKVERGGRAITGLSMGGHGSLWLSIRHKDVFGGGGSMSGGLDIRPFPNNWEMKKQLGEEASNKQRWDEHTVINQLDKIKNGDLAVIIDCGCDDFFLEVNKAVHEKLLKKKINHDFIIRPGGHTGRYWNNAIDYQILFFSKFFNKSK

[3] = target: T2, SGNH hydrolase-type esterase domain-containing protein (Phocaeicola dorei, UniProt B6W293); test: as §1; format: ADME; set-up: dose 2 uM; details: 2 µM
T2 sequence (B6W293 whole entry): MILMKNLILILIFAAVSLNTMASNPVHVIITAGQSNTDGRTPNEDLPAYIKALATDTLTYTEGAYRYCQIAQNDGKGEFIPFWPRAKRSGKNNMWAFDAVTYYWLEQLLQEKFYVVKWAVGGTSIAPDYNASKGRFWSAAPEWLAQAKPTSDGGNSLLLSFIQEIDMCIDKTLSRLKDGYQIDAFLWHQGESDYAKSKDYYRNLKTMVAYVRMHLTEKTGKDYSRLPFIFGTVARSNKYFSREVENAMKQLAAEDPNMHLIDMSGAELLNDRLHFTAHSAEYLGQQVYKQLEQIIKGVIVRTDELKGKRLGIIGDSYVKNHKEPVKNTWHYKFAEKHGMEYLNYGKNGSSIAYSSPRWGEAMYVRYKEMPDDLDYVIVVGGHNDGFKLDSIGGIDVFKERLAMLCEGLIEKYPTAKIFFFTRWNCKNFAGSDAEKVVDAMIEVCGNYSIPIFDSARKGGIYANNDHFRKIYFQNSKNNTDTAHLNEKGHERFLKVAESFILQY

[4] = target: T3, SGNH hydrolase-type esterase domain-containing protein (Phocaeicola dorei, UniProt B6VTE7); test: as §1; format: ADME; set-up: dose 2 uM; details: 2 µM
T3 sequence (B6VTE7 whole entry): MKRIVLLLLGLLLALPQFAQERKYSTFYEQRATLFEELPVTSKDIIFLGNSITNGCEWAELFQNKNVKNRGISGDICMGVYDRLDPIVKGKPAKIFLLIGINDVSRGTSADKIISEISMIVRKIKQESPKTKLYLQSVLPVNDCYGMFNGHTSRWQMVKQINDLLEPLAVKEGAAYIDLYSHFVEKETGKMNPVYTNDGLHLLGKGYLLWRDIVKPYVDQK

[5] = target: T4, Acyltransferase 3 domain-containing protein (Phocaeicola dorei, UniProt B6W2J3); test: as §1; format: ADME; set-up: dose 2 uM; details: 2 µM
T4 sequence (B6W2J3 whole entry): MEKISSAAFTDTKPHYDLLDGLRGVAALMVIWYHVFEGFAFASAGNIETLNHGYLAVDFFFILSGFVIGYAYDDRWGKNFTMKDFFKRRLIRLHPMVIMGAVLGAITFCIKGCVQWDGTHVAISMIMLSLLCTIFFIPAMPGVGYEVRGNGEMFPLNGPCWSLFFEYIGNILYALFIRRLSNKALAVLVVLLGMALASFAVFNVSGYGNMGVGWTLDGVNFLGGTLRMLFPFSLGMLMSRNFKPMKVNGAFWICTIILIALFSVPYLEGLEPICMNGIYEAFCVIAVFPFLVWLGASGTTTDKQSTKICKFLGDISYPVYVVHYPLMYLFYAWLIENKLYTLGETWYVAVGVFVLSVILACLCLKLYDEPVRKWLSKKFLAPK

[6] = target: T5, Nitroreductase domain-containing protein (Phocaeicola dorei, UniProt B6VU18); test: as §1; format: ADME; set-up: dose 2 uM; details: 2 µM
T5 sequence (B6VU18 whole entry): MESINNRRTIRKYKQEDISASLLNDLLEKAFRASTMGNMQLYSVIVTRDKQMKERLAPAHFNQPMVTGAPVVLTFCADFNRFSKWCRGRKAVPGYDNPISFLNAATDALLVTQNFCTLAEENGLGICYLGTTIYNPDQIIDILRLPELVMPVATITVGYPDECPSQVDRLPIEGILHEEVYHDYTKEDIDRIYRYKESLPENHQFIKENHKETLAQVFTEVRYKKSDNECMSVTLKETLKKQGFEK

[7] = bifidobacterium adolescentis, 12 h, 2 µM
Description: The drug is tested on Bifidobacterium adolescentis strain: ATCC 15703 for biotransformation. The drug concentrations were measured before and after a 12-h incubation by liquid-chromatography-coupled mass spectrometry (LC–MS)

[8] = parabacteroides johnsonii, 12 h, 2 µM
Description: The drug is tested on Parabacteroides johnsonii strain: DSM18315 for biotransformation. The drug concentrations were measured before and after a 12-h incubation by liquid-chromatography-coupled mass spectrometry (LC–MS)

[9] = victivallis vadensis, 12 h, 2 µM
Description: The drug is tested on Victivallis vadensis strain: ATCC BAA-548 for biotransformation. The drug concentrations were measured before and after a 12-h incubation by liquid-chromatography-coupled mass spectrometry (LC–MS)

[10] = The drug is tested on Eggerthella lenta strain: ATCC25559 for biotransformation. The drug concentrations were measured before and after a 12-h incubation by liquid-chromatography-coupled mass spectrometry (LC–MS); details: 2 µM
[11] = The drug is tested on Clostridium ramosum strain: DSM1402 for biotransformation. The drug concentrations were measured before and after a 12-h incubation by liquid-chromatography-coupled mass spectrometry (LC–MS); details: thomasclavelia ramosa, 2 µM
[12] = The drug is tested on Bacteroides fragilis strain: T(B)9 for biotransformation. The drug concentrations were measured before and after a 12-h incubation by liquid-chromatography-coupled mass spectrometry (LC–MS); details: 2 µM
[13] = The drug is tested on Salmonella typhimurium strain: LT2 for biotransformation. The drug concentrations were measured before and after a 12-h incubation by liquid-chromatography-coupled mass spectrometry (LC–MS); details: salmonella enterica subsp. enterica, 2 µM
[14] = The drug is tested on Proteus penneri strain: ATCC35198 for biotransformation. The drug concentrations were measured before and after a 12-h incubation by liquid-chromatography-coupled mass spectrometry (LC–MS); details: 2 µM
[15] = The drug is tested on Clostridium spiroforme strain: DSM1552 for biotransformation. The drug concentrations were measured before and after a 12-h incubation by liquid-chromatography-coupled mass spectrometry (LC–MS); details: thomasclavelia spiroformis, 2 µM
[16] = The drug is tested on Clostridium hathewayi strain: DSM13479 for biotransformation. The drug concentrations were measured before and after a 12-h incubation by liquid-chromatography-coupled mass spectrometry (LC–MS); details: hungatella hathewayi, 2 µM
[17] = The drug is tested on Providencia alcalifaciens strain: DSM30120 for biotransformation. The drug concentrations were measured before and after a 12-h incubation by liquid-chromatography-coupled mass spectrometry (LC–MS); details: 2 µM
[18] = The drug is tested on Eubacterium biforme strain: DSM3989 for biotransformation. The drug concentrations were measured before and after a 12-h incubation by liquid-chromatography-coupled mass spectrometry (LC–MS); details: holdemanella biformis, 2 µM
[19] = clostridioides difficile, 12 h, 2 µM
Description: The drug is tested on Clostridium difficile strain: 120 for biotransformation. The drug concentrations were measured before and after a 12-h incubation by liquid-chromatography-coupled mass spectrometry (LC–MS)

Bacterial Biotransformation [1] | Bacterial Biotransformation [2] | Bacterial Biotransformation (Esterase) | Bacterial Biotransformation [3] | Bacterial Biotransformation [4] | Bacterial Biotransformation [5] | Bacterial Biotransformation [6] | Bacterial Biotransformation [7] | Bacterial Biotransformation [8] | Bacterial Biotransformation [9] | Bacterial Biotransformation [10] | Bacterial Biotransformation [11] | Bacterial Biotransformation [12] | Bacterial Biotransformation [13] | Bacterial Biotransformation [14] | Bacterial Biotransformation [15] | Bacterial Biotransformation [16] | Bacterial Biotransformation [17] | Bacterial Biotransformation [18] | Bacterial Biotransformation [19] | SMILES
Compound NOT metabolized | Compound NOT metabolized | Compound NOT metabolized | Compound NOT metabolized | Compound NOT metabolized | Compound NOT metabolized | Compound NOT metabolized | Compound NOT metabolized | Compound metabolized | Compound NOT metabolized | Compound NOT metabolized |  |  |  |  |  |  |  |  |  | C[C@]12CCC(=O)C=C1[C@@H]1C[C@@H]1[C@H]1[C@@H]3[C@@H]4C[C@@H]4[C@@]4(CCC(=O)O4)[C@@]3(C)CC[C@@H]12 [DROSPIRENONE]
Compound NOT metabolized | Compound NOT metabolized |  |  |  |  |  | Compound NOT metabolized | Compound NOT metabolized | Compound NOT metabolized | Compound NOT metabolized | Compound NOT metabolized | Compound metabolized | Compound NOT metabolized | Compound NOT metabolized | Compound NOT metabolized | Compound NOT metabolized | Compound NOT metabolized | Compound NOT metabolized | Compound NOT metabolized | Nc1nc2ccc(OC(F)(F)F)cc2s1 [RILUZOLE]
Compound metabolized | Compound NOT metabolized | Compound NOT metabolized | Compound NOT metabolized | Compound NOT metabolized | Compound metabolized | Compound NOT metabolized | Compound NOT metabolized | Compound metabolized | Compound NOT metabolized | Compound NOT metabolized |  |  |  |  |  |  |  |  |  | N#Cc1ccc2c(c1)N(CCCN1CCC(O)CC1)c1ccccc1S2 [PERICIAZINE]
